Measurements published in DBAASP.
≈ marks a conversion by molar mass, not a printed value. One block for each molecule: values may come before it.

Legend:
Assay in all cases: ≥ marks a high value that may be exact or a test limit, other limits are often not marked, values filed in µg/mL are converted to µM
[1] = tested on: Escherichia coli
[2] = tested on: Serratia marcescens
[3] = tested on: Enterococcus faecium
[4] = tested on: Stenotrophomonas maltophilia
[5] = tested on: Acinetobacter baumannii
[6] = tested on: Enterococcus faecalis
[7] = tested on: Staphylococcus aureus MR
[8] = tested on: Streptococcus pneumoniae
[9] = tested on: Klebsiella pneumoniae
[10] = tested on: Staphylococcus aureus
[11] = tested on: Pseudomonas aeruginosa
[12] = tested on: Staphylococcus aureus ATCC 29213
[13] = tested on: Staphylococcus epidermidis RP62A
[14] = tested on: Escherichia coli ATCC 25726
[15] = tested on: Pseudomonas aeruginosa ATCC 27853
[16] = tested on: Proteus mirabilis ATCC 25933
[17] = tested on: Klebsiella pneumoniae ATCC 700603
[18] = tested on: Staphylococcus aureus ATCC 25923
[19] = tested on: Candida albicans ATCC 90028
[20] = tested on: Staphylococcus epidermidis RP62A/1
[21] = tested on: Pseudomonas putida ATCC 17426
[22] = tested on: Candida albicans ATCC 10231
[23] = tested on: Saccharomyces cerevisiae ATCC 44774
[24] = tested on: Salmonella enterica subsp. enterica serovar Enteritidis ATCC 13076
[25] = tested on: Streptococcus mutans ATCC 25175
[26] = tested on: Staphylococcus aureus ATCC 15752
[27] = tested on: Cryptococcus neoformans ATCC 34881
[28] = tested on: Bacillus subtilis ATCC 62037
[29] = tested on: Escherichia coli ATCC 27325
[30] = tested on: Staphylococcus aureus AB94004
[31] = tested on: Staphylococcus aureus P1374
[32] = tested on: Pseudomonas aeruginosa ATCC 9027
[33] = tested on: Staphylococcus aureus P1381
[34] = tested on: Staphylococcus aureus ATCC 6538
[35] = tested on: Escherichia coli ATCC 25922
[36] = tested on: Pseudomonas aeruginosa AB93066
[37] = tested on: Escherichia coli AB94012
[38] = tested on: Escherichia coli DC2
[39] = tested on: Staphylococcus epidermidis C621
[40] = tested on: Escherichia coli UB1005
[41] = tested on: Corynebacterium xerosis C875
[42] = tested on: Bacillus anthracis
[43] = tested on: Bacillus cereus

- MIC [1]: 3.16 µM (≈ 7.99 µg/mL)
- MIC [2]: 8.95 µM (≈ 22.6 µg/mL)
- MIC [3]: 12.7 µM (≈ 32 µg/mL)
- MIC [4]: 12.7 µM (≈ 32 µg/mL)
- MIC [5]: 12.7 µM (≈ 32 µg/mL)
- MIC [6]: 4.47 µM (≈ 11.3 µg/mL)
- MIC [7]: 4.47 µM (≈ 11.3 µg/mL)
- MIC [8]: 4.47 µM (≈ 11.3 µg/mL)
- MIC [9]: 4.47 µM (≈ 11.3 µg/mL)
- MIC [10]: 4.47 µM (≈ 11.3 µg/mL)
- MIC [11]: 12.7 µM (≈ 32 µg/mL)
Compound: CC[C@H](C)[C@H](NC(=O)[C@@H](NC(=O)[C@H](CCCCN)NC(=O)[C@H](CS)NC(=O)[C@H](CCCCN)NC(=O)[C@H](CCCN=C(N)N)NC(=O)[C@H](CC(C)C)NC(=O)[C@@H](NC(=O)[C@H](CCCCN)NC(=O)[C@@H](NC(=O)[C@H](CC(C)C)NC(=O)[C@H](C)NC(=O)[C@@H](NC(=O)[C@H](Cc1ccccc1)NC(=O)CNC(=O)[C@@H]1CCCN1C(=O)[C@@H]1CCCN1C(=O)[C@@H](NC(=O)[C@H](CCC(=O)O)NC(=O)[C@H](CCCN=C(N)N)NC(=O)[C@H](CC(N)=O)NC(=O)[C@@H](N)CCC(=O)O)C(C)C)[C@@H](C)O)[C@@H](C)CC)[C@@H](C)O)[C@@H](C)CC)C(=O)O [ENREVPPGFTALIKTLRKCKII]

- MIC [12]: 3.1 µM (≈ 9.59 µg/mL)
- MIC [13]: 1.6 µM (≈ 4.95 µg/mL)
- MIC [14]: 3.1 µM (≈ 9.59 µg/mL)
- MIC [15]: 12.5 µM (≈ 38.7 µg/mL)
- MIC [4]: 1.6 µM (≈ 4.95 µg/mL)
- MIC [5]: 3.1 µM (≈ 9.59 µg/mL)
- MIC [16]: ≥ 100 µM
- MIC [17]: 6.25 µM (≈ 19.3 µg/mL)
- MIC [18]: 3.1 µM (≈ 9.59 µg/mL)
- MIC [19]: ≥ 100 µM
- MIC [20]: 0.8 µM (≈ 2.48 µg/mL)
Compound: CC[C@H](C)[C@H](N)C(=O)N[C@@H](CCCCN)C(=O)N[C@@H](CC(C)C)C(=O)N[C@@H](CO)C(=O)N[C@@H](CCCCN)C(=O)N[C@@H](CCCCN)C(=O)N[C@H](C(=O)N[C@@H](CCCCN)C(=O)N[C@@H](CC(=O)O)C(=O)N[C@@H](CC(N)=O)C(=O)N[C@@H](CC(C)C)C(=O)N[C@@H](CCCCN)C(=O)N[C@@H](CCCCN)C(=O)N[C@H](C(=O)N[C@@H](CC(C)C)C(=O)N[C@@H](CCCCN)C(=O)NCC(=O)N[C@@H](C)C(=O)N[C@H](C(=O)N[C@@H](CCCCN)C(=O)NCC(=O)N[C@@H](C)C(=O)N[C@H](C(=O)N[C@@H](C)C(=O)N[C@H](C(=O)N[C@@H](C)C(=O)N[C@@H](CCCCN)C(=O)N[C@@H](CCSC)C(=O)N[C@H](C(N)=O)C(C)C)C(C)C)[C@@H](C)CC)[C@@H](C)CC)C(C)C)[C@@H](C)O [IKLSKKTKDNLKKVLKGAIKGAIAVAKMV]

- MIC [21]: 0.548 µM (≈ 1 µg/mL)
- MIC [22]: 0.548 µM (≈ 1 µg/mL)
- MIC [23]: 0.548 µM (≈ 1 µg/mL)
- MIC [24]: 2.19 µM (≈ 4 µg/mL)
- MIC [25]: 1.1 µM (≈ 2 µg/mL)
- MIC [26]: 2.19 µM (≈ 4 µg/mL)
- MIC [27]: 0.548 µM (≈ 1 µg/mL)
- MIC [28]: 0.548 µM (≈ 1 µg/mL)
- MIC [29]: 0.548 µM (≈ 1 µg/mL)
Compound: CC(C)[C@H](NC(=O)[C@H](CCCCN)NC(=O)CNC(=O)CNC(=O)[C@H](CCC(N)=O)NC(=O)[C@H](CCCCN)NC(=O)CNC(=O)[C@H](CCCN=C(N)N)NC(=O)CNC(=O)[C@@H](N)CCCCN)C(=O)N[C@@H](CCCN=C(N)N)C(=O)N[C@@H](C)C(=O)N[C@@H](CCCCN)C(=O)N[C@@H](C)C(=O)N[C@@H](CCCCN)C(=O)N[C@H](C(=O)N[C@@H](CCCN=C(N)N)C(=O)O)[C@@H](C)O [KGRGKQGGKVRAKAKTR]

- MIC [30]: 3.87 µM (≈ 6.25 µg/mL)
- MIC [31]: 3.87 µM (≈ 6.25 µg/mL)
- MIC [32]: 30.9 µM (≈ 50 µg/mL)
- MIC [33]: 3.87 µM (≈ 6.25 µg/mL)
- MIC [34]: 7.73 µM (≈ 12.5 µg/mL)
- MIC [18]: 7.73 µM (≈ 12.5 µg/mL)
- MIC [35]: 30.9 µM (≈ 50 µg/mL)
- MIC [36]: 30.9 µM (≈ 50 µg/mL)
- MIC [37]: 15.5 µM (≈ 25 µg/mL)
Compound: CC[C@H](C)[C@H](NC(=O)[C@H](CO)NC(=O)[C@H](CCCCN)NC(=O)[C@@H](NC(=O)CNC(=O)[C@H](CCCCN)NC(=O)[C@H](Cc1c[nH]c2ccccc12)NC(=O)[C@H](CC(C)C)NC(=O)[C@H](CCCCN)NC(=O)CNC(=O)[C@H](CC(C)C)NC(=O)[C@@H](NC(=O)[C@@H](N)CCCCN)[C@@H](C)CC)C(C)C)C(=O)N[C@@H](Cc1ccccc1)C(N)=O [KILGKLWKGVKSIF]

- MIC [38]: 8 µM (≈ 20.8 µg/mL)
- MIC [39]: 0.25 µM (≈ 0.649 µg/mL)
- MIC [40]: 16 µM (≈ 41.6 µg/mL)
- MIC [41]: 0.25 µM (≈ 0.649 µg/mL)
Compound: C[C@H](NC(=O)[C@H](C)NC(=O)[C@H](C)NC(=O)[C@H](Cc1c[nH]c2ccccc12)NC(=O)[C@H](C)NC(=O)[C@H](C)NC(=O)[C@H](C)NC(=O)[C@H](CCCCN)NC(=O)[C@@H](N)CCCCN)C(=O)N[C@@H](C)C(=O)N[C@@H](C)C(=O)N[C@@H](Cc1c[nH]c2ccccc12)C(=O)N[C@@H](C)C(=O)N[C@@H](C)C(=O)N[C@@H](Cc1c[nH]c2ccccc12)C(=O)N[C@@H](C)C(=O)N[C@@H](C)C(=O)N[C@@H](Cc1c[nH]c2ccccc12)C(=O)N[C@@H](C)C(=O)N[C@@H](C)C(=O)N[C@@H](C)C(=O)N[C@@H](CCCCN)C(=O)N[C@@H](CCCCN)C(=O)N[C@@H](CCCCN)C(=O)N[C@@H](CCCCN)C(N)=O [KKAAAWAAAAAWAAWAAWAAAKKKK]

Compound: CC[C@H](C)[C@H](NC(=O)[C@H](CC(C)C)NC(=O)[C@H](C)NC(=O)[C@@H]1CCCN1C(=O)[C@H](C)NC(=O)[C@@H](NC(=O)[C@H](CCCCN)NC(=O)[C@@H](N)CCCN=C(N)N)C(C)C)C(=O)N[C@@H](CCCCN)C(=O)N[C@@H](CO)C(=O)N[C@@H](Cc1ccccc1)C(=O)N[C@H](C(=O)N[C@@H](Cc1ccccc1)C(=O)N[C@@H](CC(C)C)C(=O)N[C@@H](Cc1ccccc1)C(=O)N[C@@H](CCCCN)C(=O)N[C@@H](Cc1ccccc1)C(=O)N[C@@H](CCCCN)C(=O)N[C@@H](CCCCN)C(=O)NCC(=O)O)C(C)C [RKVAPALIKSFVFLFKFKKG]
- MIC [1]: > 110 µM
- MIC [42]: ≥ 110 µM
- MIC [43]: ≥ 110 µM
- MIC [10]: 55.1 µM (≈ 128 µg/mL)

Compound: CC(C)C[C@H](NC(=O)[C@H](C)NC(=O)[C@H](CO)NC(=O)[C@H](Cc1ccccc1)NC(=O)[C@@H](NC(=O)[C@H](CO)NC(=O)[C@@H]1CCCN1C(=O)[C@@H](NC(=O)[C@@H](NC(=O)[C@H](CCCCN)NC(=O)[C@H](CO)NC(=O)[C@H](C)NC(=O)[C@H](CC(C)C)NC(=O)[C@H](CCCCN)NC(=O)[C@H](Cc1ccccc1)NC(=O)[C@@H](NC(=O)[C@H](Cc1ccccc1)NC(=O)[C@@H](N)CO)C(C)C)C(C)C)C(C)C)C(C)C)C(=O)N[C@H](C(=O)N[C@@H](CCCN=C(N)N)C(=O)O)[C@@H](C)O [SFVFKLASKVVPSVFSALTR]
- MIC [1]: 117 µM
- MIC [42]: ≥ 58.6 µM
- MIC [43]: ≥ 117 µM
- MIC [10]: 117 µM
